One molecule from patent US20060014726A1, “Derivatives of cyclic1, 3- propanediol phosphate and their action in differentiation therapy” (priority 2002, published 2006) can be followed below.

Read-outs that look alike come from different tables or passages of the source.

For one series, the system named is ER-α mRNA in MCF-7 cells. The series is described as follows: Quantitative RT-PCR of ER-α mRNA in MCF-7 cells. Type of series: cell-based, human. As for the experimental part:
It should however be understood that the augmented expression of ER-α and PR presented in FIGS. 1-3 could have in principle originated from increase in either transcription or translation associated with the respective steroid receptor genes. Therefore the effects of long term incubation with 1,3cPP on the respective ER-α and PR mRNA levels were examined. Quantitative RT-PCR was carried out with a Light Cycler as described. […] In contrast, only 20 μM 1,3-cPP were required to induce 7-fold increase in the ER-α mRNA in T47D clone 8 cells (FIG. 4D). The analogous data for PR are depicted for MCF-7 cells in FIGS. 5A-B where at 20 μM, there was a 3 fold increase in the normalized PR mRNA expression on the 8th day. This increase receded to about 1.5-fold by the 11th day.
MCF-7 and T47D cells were cultured and treated as described above. Total cellular RNA was extracted with TRI reagent according to the manufacturer's instructions (Molecular Research Center, Inc. Cincinnati, Ohio). Reverse transcription (RT) was performed in a total reaction mixture of 20 μl with 1-5 μg RNA by first heating to 65° C. for 5 min in the presence of 25 μg/ml Oligo (dT)12-18, and 0.5 mM deoxynucleotide triphosphates (dNTP). The RT reaction mixture was then quickly cooled on ice. […]
(§1) RT-PCR was carried out on a programmable thermal controller instrument according to standard protocols, where the annealing temperatures were 58° C. for ER-α and 56° C. for PR. […] The PCR products were diluted and used to build a standard curve for the quantitative PCR which was carried out in a Light Cycler instrument (Roche Diagnostics, Mannheim, Germany). […] For each control and test sample, the amount of the constitutively expressed house keeping enzyme glyceraldehyde-3-phosphate dehydrogenase (GAPDH) mRNA was quantified by using appropriate primers and the quantity of ER-α and PR mRNA were normalized to the quantity of GAPDH mRNA in each sample. The relative amounts of ER-α and PR mRNA were expressed as normalized 1,3cPP treatment values divided by the normalized control values.

The subject of series [1] is ER-α mRNA in T47D clone 8 cells. The experiment in a line: Quantitative RT-PCR of ER-α mRNA in T47D clone 8 cells. Type of series: cell-based, human. The conditions noted are these: 20 μM, 6 days (FIG. 4D). On the procedure: (§2) It should however be understood that the augmented expression of ER-α and PR presented in FIGS. 1-3 could have in principle originated from increase in either transcription or translation associated with the respective steroid receptor genes. Therefore the effects of long term incubation with 1,3cPP on the respective ER-α and PR mRNA levels were examined. Quantitative RT-PCR was carried out with a Light Cycler as described. […] In contrast, only 20 μM 1,3-cPP were required to induce 7-fold increase in the ER-α mRNA in T47D clone 8 cells (FIG. 4D). […]
as §1

For the next series, the system named is PR mRNA in MCF-7 cells. The experiment in a line: Quantitative RT-PCR of PR mRNA in MCF-7 cells. Type of series: cell-based, human. The conditions noted are these: 20 μM. As for the experimental part: as §2, §1
For another series, the system named is K562 cells. As for the experimental part: It is known from the literature that sodium butyrate derives K562 cells into the erythroid differentiation program (Sutherland et al. 1986). Base on such an observation, the ability of 1,3-cPP alone or in combination with sodium butyrate may trigger the erythroid differentiation program manifested by hemoglobin production.
K562 cells were incubated for 5 days in the presence or absence of 10 or 50 μM 1,3cPP and 1 mM butyric acid as a differentiating agent. Quantitative measurements of hemoglobin production was determined by staining of lysed cells with benzidine-peroxide reagent. The benzidine-peroxide reagent was prepared by dissolving 3,3′,5,5′-tetramethyl benzidine in 90% acetic acid and mixing with an equal volume of freshly prepared 1% hydrogen peroxide. Cell lysate, obtained by hypotonic lysing of 5×10^4 cells in 0.1 ml distilled water, was added to 0.1 ml benzidine reagent and incubated at room temperature for 10 minutes in the dark. Absorbance was measured at 515 nm and was taken as a relative index of the hemoglobin level.

The subject of series [2] is T47D human breast cancer cells (clone 11). The experiment in a line: Proliferation assay ([3H]thymidine uptake). The format is cell-based. The conditions noted are these: T47D clone 11, 50 μM. As for the experimental part: In order to validate such an observation, T47D cells were incubated with varying concentration of 1,3-cPP in the range of 1-50 μM in a standard 5 day [3H]thymidine uptake assay.
T47D cells (clone 11;ER^+PR^+) were plated in 96 well plates in sets of 6, each containing 8×10^4 cells in a final volume of 200 μl per well. 1,3-cPP was added to the cultures to form a final concentration of 1-50 μM. Plates were incubated at 37° C. over the course of 5 days, where on each day, one plate was pulsed with [^3H]thymidine (5.7 Ci/mmol, Sigma, St. Louis, Mo.) overnight for the last 16 hours of the assay, and then frozen. The plates were harvested (Packard micromate 196 harvester, Merriden, Conn.) and radioactivity was scored on a 96 well plate reader (Packard 96, merriden, Conn.).

The nature of a further series: Acute toxicity testing. Type of series: in vivo. The conditions noted are these: CD-1 mice. As for the experimental part: The acute toxicity of 1,3cPP was determined in CD-1 male and female mice, 8-12 weeks of age, via i.v., i.p. and p.o. routes of administration.

`O=P1(O)OCCCO1` [1,3-cPP, 1,3-cyclic propanediol phosphate]: the “increase in the normalized ER-α mRNA transcription” value stood at 10 fold in the series on ER-α mRNA in MCF-7 cells (50 μM, 11th day); 6 fold in the series with ER-α mRNA in MCF-7 cells (100 μM, day 6, normalized to GAPDH, relative to control); 6 fold in the series on ER-α mRNA in MCF-7 cells (100 μM, day 14, normalized to GAPDH, relative to control). The “increase in the ER-α mRNA” value in series [1] was determined as 7 fold. In addition, the “increase in the normalized PR mRNA expression” value in the series on PR mRNA in MCF-7 cells (8th day) is recorded as 3 fold; in the series with PR mRNA in MCF-7 cells (11th day), “about 1.5 fold”. For the same molecule, the “baseline production of hemoglobin” value in the series with K562 cells (K562 cells, 10 μM 1,3-cPP together with 1 mM sodium butyrate, 5 days) is “more than doubling”; in the series on K562 cells (K562 cells, 50 μM 1,3-cPP together with 1 mM sodium butyrate, 5 days), “more than tripling”. For the same molecule, the hemoglobin production entry in the series with K562 cells (K562 cells, 1,3-cPP alone, 5 days) is “almost no effect”. Also, in the series with K562 cells (K562 cells, all groups), the cell viability result was “over 85%”. Further, the “interaction with sodium butyrate on hemoglobin production and proliferation” value in the series on K562 cells (K562 cells, combination with sodium butyrate (FIG. 7)) is on record as “synergizes with sodium butyrate”. In addition, the total cell number result with K562 cells (K562 cells, fifth day, most prominently 50 μM 1,3-cPP together with 1 mM sodium butyrate) is on record as “concurrent decrease”. In addition, the “proliferation ([3H]thymidine uptake), persistence of effect” value in series [2] (after the third day of 5 day assay) is reported as “effect was lost after the third day”. Also, the “proliferation ([3H]thymidine uptake) compared to control cultures” value in series [2] (first 3 days of incubation, P values 0.0370, 0.0192 and 0.0238 on days 1-3) is listed as “significantly inhibited proliferation”. Also, the “acute 24 hr toxicity, pharmacotoxic effects” value in the series “Acute toxicity testing” (i.p., doses of 0.25-5.0 g/kg) is on record as “no pharmacotoxic effects were observed”. Moreover, the “toxicity classification following conventional criteria” value in the series “Acute toxicity testing” (i.v., i.p. and p.o.) is listed as “practically non-toxic substance”. In addition, the “acute toxicity, changes in body weight and behavior” value in the series “Acute toxicity testing” (i.v., up to 1 g/kg) was “no changes in body weight nor in behavior”; in “Acute toxicity testing” (p.o., up to 10 g/kg), “no changes in body weight nor in behavior”.
